Test results reported in the NIST ThermoML archive (doi:10.1021/je9000872).
Numbers after ± are expanded uncertainties.

Test: molar enthalpy of vaporization or sublimation
Conditions: 298.15 K, Calvet microcalorimetry

Row | molar enthalpy (Liquid) | molar enthalpy (Crystal) | Compound
1 | 52.3 ± 1.6 kJ/mol |  | Oc1ccccc1F [2-fluorophenol]
2 | 60.1 ± 1.8 kJ/mol |  | Oc1cccc(F)c1 [3-fluorophenol]
3 |  | 73.9 ± 2.8 kJ/mol | Oc1ccc(F)cc1 [4-fluorophenol]
